Data from ChEMBL document CHEMBL1201862, “PubChem BioAssay data set” (2004).
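Cells were grown in 96-well plates and exposed to each compound for 48 hours at five concentrations; endpoints were interpolated linearly between bracketing concentrations, or set to the highest concentration if not reached. GI50: concentration for 50% inhibition of growth.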 Active and inactive are the calls of the source. No stated cut-off is given here; in the data, active = GI50 up to about 1.1 µM and inactive = higher.

Experiments:
Test in all cases: NCI anticancer screen, dose series, 48 h
786-0 = tested on: 786-0
A498 = tested on: A498
A549 = tested on: A549
ACHN = tested on: ACHN
BT-549 = tested on: BT-549
CAKI-1 = tested on: CAKI-1
CCRF-CEM = tested on: CCRF-CEM
COLO 205 = tested on: COLO 205
DU-145 = tested on: DU-145
EKVX = tested on: EKVX
HCC 2998 = tested on: HCC 2998
HCT-116 = tested on: HCT-116
HCT-15 = tested on: HCT-15
HL-60 = tested on: HL-60
HOP-62 = tested on: HOP-62
HOP-92 = tested on: HOP-92
HT-29 = tested on: HT-29
Hs-578T = tested on: Hs-578T
IGROV-1 = tested on: IGROV-1
K562 = tested on: K562
KM12 = tested on: KM12
LOX IMVI = tested on: LOX IMVI
M14 = tested on: M14
MCF7 = tested on: MCF7
MDA-MB-231 = tested on: MDA-MB-231
MDA-MB-435 = tested on: MDA-MB-435
MDA-N = tested on: MDA-N
MOLT-4 = tested on: MOLT-4
Malme-3M = tested on: Malme-3M
NCI-H226 = tested on: NCI-H226
NCI-H23 = tested on: NCI-H23
NCI-H460 = tested on: NCI-H460
NCI-H522 = tested on: NCI-H522
NCI/ADR-RES = tested on: NCI/ADR-RES
OVCAR-3 = tested on: OVCAR-3
OVCAR-4 = tested on: OVCAR-4
OVCAR-5 = tested on: OVCAR-5
OVCAR-8 = tested on: OVCAR-8
PC-3 = tested on: PC-3
RPMI-8226 = tested on: RPMI-8226
RXF 393 = tested on: RXF 393
SF-268 = tested on: SF-268
SF-295 = tested on: SF-295
SF-539 = tested on: SF-539
SK-MEL-28 = tested on: SK-MEL-28
SK-MEL-2 = tested on: SK-MEL-2
SK-MEL-5 = tested on: SK-MEL-5
SK-OV-3 = tested on: SK-OV-3
SN12C = tested on: SN12C
SNB-19 = tested on: SNB-19
SNB-75 = tested on: SNB-75
SR = tested on: SR
SW-620 = tested on: SW-620
T47D = tested on: T47D
TK-10 = tested on: TK-10
U-251 = tested on: U-251
UACC-257 = tested on: UACC-257
UACC-62 = tested on: UACC-62
UO-31 = tested on: UO-31

For `O=C(CCc1ccc(O)c(O)c1)NCCc1ccccc1`, the GI50 (786-0) was 31.6 µM (inactive), the GI50 (A498) was > 100 µM (inactive) and the GI50 (A549) was 76.9 µM (inactive). For the same molecule, the GI50 (ACHN) was 22 µM (inactive), the GI50 (BT-549) was 31.8 µM (inactive) and the GI50 (CAKI-1) was 6.49 µM (inactive). The GI50 (CCRF-CEM) was 3.17 µM (inactive), the GI50 (COLO 205) was 23.1 µM (inactive) and the GI50 (DU-145) was > 88.1 µM (inactive). The GI50 (EKVX) was > 94.2 µM (inactive), the GI50 (HCC 2998) was > 100 µM (inactive) and the GI50 (HCT-116) was 26.4 µM (inactive). The GI50 (HCT-15) was 15.5 µM, the GI50 (HL-60) was 6.58 µM (inactive) and the GI50 (HOP-62) was > 100 µM (inactive). The GI50 (HOP-92) was 48.3 µM (inactive), the GI50 (HT-29) was > 45.3 µM (inactive) and the GI50 (Hs-578T) was > 82.6 µM (inactive). The GI50 (IGROV-1) was 50.9 µM (inactive), the GI50 (K562) was 16.5 µM (inactive) and the GI50 (KM12) was 49.9 µM (inactive). For the same molecule, the GI50 (LOX IMVI) was 63.2 µM (inactive), the GI50 (M14) was > 85.7 µM (inactive) and the GI50 (MCF7) was 15.1 µM (inactive). For the same molecule, the GI50 (MDA-MB-231) was 16.8 µM (inactive), the GI50 (MDA-MB-435) was 15.2 µM (inactive) and the GI50 (MDA-N) was 19 µM (inactive). The GI50 (MOLT-4) was 12.7 µM (inactive), the GI50 (Malme-3M) was > 100 µM (inactive) and the GI50 (NCI-H226) was 99.8 µM (inactive). The GI50 (NCI-H23) was 35.2 µM (inactive), the GI50 (NCI-H460) was > 91.2 µM (inactive) and the GI50 (NCI-H522) was 5.6 µM (inactive). For the same molecule, the GI50 (NCI/ADR-RES) was 40.4 µM (inactive), the GI50 (OVCAR-3) was 30.1 µM (inactive) and the GI50 (OVCAR-4) was 14.6 µM (inactive). For the same molecule, the GI50 (OVCAR-5) was > 100 µM (inactive), the GI50 (OVCAR-8) was > 47.5 µM (inactive) and the GI50 (PC-3) was > 37.2 µM (inactive). The GI50 (RPMI-8226) was 6.1 µM (inactive), the GI50 (RXF 393) was > 100 µM (inactive) and the GI50 (SF-268) was > 32.4 µM (inactive). The GI50 (SF-295) was > 91.2 µM (inactive), the GI50 (SF-539) was > 47.8 µM (inactive) and the GI50 (SK-MEL-28) was 85.5 µM (inactive). For the same molecule, the GI50 (SK-MEL-2) was 32.7 µM (inactive), the GI50 (SK-MEL-5) was 22.4 µM (inactive) and the GI50 (SK-OV-3) was 65.8 µM (inactive). The GI50 (SN12C) was > 31.6 µM (inactive), the GI50 (SNB-19) was > 74.5 µM (inactive) and the GI50 (SNB-75) was > 48 µM (inactive). The GI50 (SR) was 7.16 µM (inactive), the GI50 (SW-620) was > 100 µM (inactive) and the GI50 (T47D) was 34.4 µM (inactive). For the same molecule, the GI50 (TK-10) was > 79.8 µM (inactive), the GI50 (U-251) was 75 µM (inactive) and the GI50 (UACC-257) was > 79.4 µM (inactive). The GI50 (UACC-62) was 24.5 µM (inactive) and the GI50 (UO-31) was 10.2 µM (inactive).
